Where only a bound is given, the exact number is not on record here.

One test deals with GDF-15. Description: GDF-15 levels in the cell supernatant (ELISA). The conditions noted are these: 24 h after co-administration with RSL3, compared to RSL3-only. Type of test: cell-based, human. Here is the method:
GDF-15 is a biomarker that is elevated in the blood of patients with mitochondrial diseases and is used for the diagnosis of mitochondrial diseases and determination of therapeutic efficacy[26],[36]. […] As previously reported, GDF-15 levels were measured by an enzyme-linked immuno sorbent assay (ELISA) using the Quantikin Human GDF-15 ELISA Kit (R&D Systems, Minneapolis, MN, USA). Samples were obtained from anti-RSL3-induced cell death assays with candidate compounds (D31, D55, and D40), and cell supernatants 24 h after reagent addition were used for the assay. Measured values were calculated with reference to internal standards and compared to GDF-15 values.
For the compound `CCOC(=O)c1ccc(NC2CCCCC2)c(N)c1` [ferrostatin-1, reference compound], the “GDF-15 elevation in cell supernatant” value is given as “significant decrease”.

For another test, the system named is LS patient-derived skin fibroblasts. The test can be described thus: Anti-BSO-induced cell death activity assay. The settings on record: Homo sapiens, Skin fibroblast, 48 h, read-out: Anti-BSO-induced cell death effect EC50, co-added with BSO at a concentration giving 10%-20% cell viability; viable cells 48 h after addition.
For the compound `CN1CCc2cccc3c2[C@H]1Cc1ccc(OCCCc2ccccc2)c(O)c1-3` [D37, (9R)-10-methyl-4-(3-phenylpropoxy)-10-azatetracyclo[7.7.1.0²,⁷.0¹³,¹⁷]heptadeca-1(17),2,4,6,13,15-hexaen-3-ol], the EC50 is 186 nM. Same read-out and setting: then `Oc1ccc2c(c1O)-c1cccc3c1[C@@H](C2)NCC3` [D4, (9R)-10-azatetracyclo[7.7.1.0²,⁷.0¹³,¹⁷]heptadeca-1(17),2,4,6,13,15-hexaene-3,4-diol], with 1990 nM; and `CN1CCc2cccc3c2[C@@H]1Cc1ccc(O)c(O)c1-3` [D24, (9S)-10-methyl-10-azatetracyclo[7.7.1.0²,⁷.0¹³,¹⁷]heptadeca-1(17),2(7),3,5,13,15-hexaene-3,4-diol], with 1030 nM. On the same count and under the same terms, then `CN1CCc2cccc3c2[C@H]1Cc1ccc(OCCCC(F)(F)F)c(O)c1-3` [D42, (9R)-10-methyl-4-(4,4,4-trifluorobutoxy)-10-azatetracyclo[7.7.1.0²,⁷.0¹³,¹⁷]heptadeca-1(17),2,4,6,13,15-hexaen-3-ol], with 167 nM; and `COc1cccc2c1C[C@@H]1c3c(cc4c(c3-2)OCO4)CCN1C` [D9, (12R)-15-methoxy-11-methyl-3,5-dioxa-11-azapentacyclo[10.7.1.0²,⁶.0⁸,²⁰.0¹⁴,¹⁹]icosa-1(20),2(6),7,14,16,18-hexaene], with 393 nM; and `CN1CCc2cc3c(c4c2[C@@H]1Cc1ccccc1-4)OCO3` [D18, (12S)-11-methyl-3,5-dioxa-11-azapentacyclo[10.7.1.0²,⁶.0⁸,²⁰.0¹⁴,¹⁹]icosa-1(20),2(6),7,14,16,18-hexaene], with 492 nM. Take `CN1CCc2cccc3c2[C@H]1Cc1ccc(OCCCN)c(O)c1-3` [D27, (9R)-4-(3-aminopropoxy)-10-methyl-10-azatetracyclo[7.7.1.0²,⁷.0¹³,¹⁷]heptadeca-1(17),2,4,6,13,15-hexaen-3-ol]: the EC50 turned out to be 221 nM. The same measure, in the same setting: then `CN1CCc2cccc3c2[C@H]1Cc1ccc(OCCC(c2ccccc2)c2ccccc2)c(O)c1-3` [D54, (9R)-4-(3,3-diphenylpropoxy)-10-methyl-10-azatetracyclo[7.7.1.0²,⁷.0¹³,¹⁷]heptadeca-1(17),2,4,6,13,15-hexaen-3-ol], with 497 nM; and `CCCN1CCc2cccc3c2[C@H]1Cc1ccc2c(c1-3)OCO2` [D5, (12R)-13-propyl-4,6-dioxa-13-azapentacyclo[10.7.1.0²,¹⁰.0³,⁷.0¹⁶,²⁰]icosa-1(20),2,7,9,16,18-hexaene], with 2110 nM. Same read-out and setting: then `COc1cc2c(cc1OC)-c1c3c(c(OC)c4c1C(C2)N(C)CC4)OCO3` (centres unmarked) [D20, 7,16,17-trimethoxy-11-methyl-3,5-dioxa-11-azapentacyclo[10.7.1.0²,⁶.0⁸,²⁰.0¹⁴,¹⁹]icosa-1(20),2(6),7,14,16,18-hexaene], with 798 nM.

For the compound `CN1CCc2cccc3c2[C@H]1Cc1ccc(OCCCCl)c(O)c1-3` [D39, (9R)-4-(3-chloropropoxy)-10-methyl-10-azatetracyclo[7.7.1.0²,⁷.0¹³,¹⁷]heptadeca-1(17),2,4,6,13,15-hexaen-3-ol], the EC50 turned out to be 259 nM. `CN1CCc2cccc3c2[C@H]1Cc1ccc(OCCCCc2ccccc2)c(O)c1-3` [D50, (9R)-10-methyl-4-(4-phenylbutoxy)-10-azatetracyclo[7.7.1.0²,⁷.0¹³,¹⁷]heptadeca-1(17),2,4,6,13,15-hexaen-3-ol]: the EC50 was 207 nM.

On to `CCCN1CCc2cccc3c2[C@H]1Cc1ccc(O)c(O)c1-3` [D3, (9R)-10-propyl-10-azatetracyclo[7.7.1.0²,⁷.0¹³,¹⁷]heptadeca-1(17),2,4,6,13,15-hexaene-3,4-diol], for which the EC50 was found to be 186 nM.

For `CN1CCc2cccc3c2[C@H]1Cc1ccc(OCCc2ccccc2)c(O)c1-3` [D48, (9R)-10-methyl-4-(2-phenylethoxy)-10-azatetracyclo[7.7.1.0²,⁷.0¹³,¹⁷]heptadeca-1(17),2,4,6,13,15-hexaen-3-ol], the EC50 was found to be 128 nM. The same measure, in the same setting: in the case of `CN1CCc2cccc3c2[C@H]1Cc1ccc(O)c(O)c1-3` [D15, (9R)-10-methyl-10-azatetracyclo[7.7.1.0²,⁷.0¹³,¹⁷]heptadeca-1(17),2,4,6,13,15-hexaene-3,4-diol, reference compound] it was 613 nM; in that of `CN1CCc2cccc3c2[C@H]1Cc1ccc(OCCCO)c(O)c1-3` [D38, (9R)-4-(3-hydroxypropoxy)-10-methyl-10-azatetracyclo[7.7.1.0²,⁷.0¹³,¹⁷]heptadeca-1(17),2,4,6,13,15-hexaen-3-ol], 165 nM; in that of `CCCCOc1ccc2c(c1O)-c1cccc3c1[C@@H](C2)N(C)CC3` [D36, (9R)-4-butoxy-10-methyl-10-azatetracyclo[7.7.1.0²,⁷.0¹³,¹⁷]heptadeca-1(17),2,4,6,13,15-hexaen-3-ol], 123 nM.

`COc1cc(O)c2c(c1)C[C@@H]1c3c(cc4c(c3-2)OCO4)CCN1C` [D10, (12R)-16-methoxy-11-methyl-3,5-dioxa-11-azapentacyclo[10.7.1.0²,⁶.0⁸,²⁰.0¹⁴,¹⁹]icosa-1(20),2(6),7,14,16,18-hexaen-18-ol]: the EC50 was 750 nM. Still for that read-out and setting: then `COc1cc2c3c(c1O)-c1c(ccc(OC)c1OC)C[C@H]3N(C)CC2` [D26, (9R)-3,4,15-trimethoxy-10-methyl-10-azatetracyclo[7.7.1.0²,⁷.0¹³,¹⁷]heptadeca-1(17),2,4,6,13,15-hexaen-16-ol], with 289 nM; and `CN1CCc2cccc3c2[C@H]1Cc1ccc(-c2ccccc2)c(O)c1-3` [D45, (9R)-10-methyl-4-phenyl-10-azatetracyclo[7.7.1.0²,⁷.0¹³,¹⁷]heptadeca-1(17),2,4,6,13,15-hexaen-3-ol], with under 100 nM; and `COc1ccc2c(c1OC)C[C@@H]1c3c(cc4c(c3-2)OCO4)CCN1C` [D8, (12R)-15,16-dimethoxy-11-methyl-3,5-dioxa-11-azapentacyclo[10.7.1.0²,⁶.0⁸,²⁰.0¹⁴,¹⁹]icosa-1(20),2(6),7,14,16,18-hexaene], with 180 nM. Still for that read-out and setting: in the case of `COc1cc2c(cc1O)C[C@@H]1c3c(cc(O)c(OC)c3-2)CCN1C` [D19, (9R)-4,16-dimethoxy-10-methyl-10-azatetracyclo[7.7.1.0²,⁷.0¹³,¹⁷]heptadeca-1(17),2,4,6,13,15-hexaene-5,15-diol] it was 5180 nM; in that of `CCCCCCCCCOc1ccc2c(c1O)-c1cccc3c1[C@@H](C2)N(C)CC3` [D41, (9R)-10-methyl-4-(nonyloxy)-10-azatetracyclo[7.7.1.0²,⁷.0¹³,¹⁷]heptadeca-1(17),2,4,6,13,15-hexaen-3-ol], 648 nM; in that of `COc1cc2c(cc1OC)-c1c(OC)c(OC)cc3c1[C@@H](C2)N(C)CC3` [D11, (9R)-4,5,15,16-tetramethoxy-10-methyl-10-azatetracyclo[7.7.1.0²,⁷.0¹³,¹⁷]heptadeca-1(17),2,4,6,13,15-hexaene], 6920 nM. The same measure, in the same setting: then `CN1CCc2cccc3c2[C@H]1Cc1ccc(OCc2ccccc2)c(O)c1-3` [D47, (9R)-4-(benzyloxy)-10-methyl-10-azatetracyclo[7.7.1.0²,⁷.0¹³,¹⁷]heptadeca-1(17),2,4,6,13,15-hexaen-3-ol], with 124 nM; and `COc1cc2c(cc1O)CC1NCCc3cc(OC)c(OC)c-2c31` (centres unmarked) [D25, 4,15,16-trimethoxy-10-azatetracyclo[7.7.1.0²,⁷.0¹³,¹⁷]heptadeca-1(17),2(7),3,5,13,15-hexaen-5-ol], with 2050 nM.

Another test deals with T1, dopamine D2 receptors (Homo sapiens, UniProt P14416).
T1 construct: host or cells: CHO-K1 (GeneBLAzer D2-Gqo5-NFAT-bla)
T1 sequence (P14416 whole entry): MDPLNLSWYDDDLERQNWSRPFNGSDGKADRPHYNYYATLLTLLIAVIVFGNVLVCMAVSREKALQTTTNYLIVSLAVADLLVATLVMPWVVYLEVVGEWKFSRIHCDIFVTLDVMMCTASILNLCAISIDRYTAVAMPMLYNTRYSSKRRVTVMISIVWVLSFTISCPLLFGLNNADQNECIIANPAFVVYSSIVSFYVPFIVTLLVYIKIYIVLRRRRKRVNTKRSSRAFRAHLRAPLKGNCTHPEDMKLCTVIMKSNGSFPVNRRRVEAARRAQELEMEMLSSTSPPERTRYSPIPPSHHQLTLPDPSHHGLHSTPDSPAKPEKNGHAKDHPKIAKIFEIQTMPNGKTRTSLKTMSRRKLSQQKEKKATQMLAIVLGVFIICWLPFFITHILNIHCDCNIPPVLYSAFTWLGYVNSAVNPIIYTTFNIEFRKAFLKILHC
The test can be described thus: Dopamine D2 receptor agonist assay (GeneBLAzer D2-Gqo5-NFAT-bla CHO-K1 reporter). The conditions noted are these: CHO cells stably expressing dopamine D2 receptors; NA: no activity; read-out: Dopamine D2 receptor agonist (DA) activity EC50. Type of test: cell-based. As to the method:
CHO-K1 cells were spread in 384-well plates at 10,000 cells/32 μL/well, taking care not to touch the bottom of the wells. Cell-free-wells were injected with the same volume (32 μL) of assay medium. The plates were then incubated in a CO2 incubator for 16–20 h. […] The diluted solution (8 μL/well) was added to 384-well plates seeded with CHO-K1 cells and incubated in a CO2 incubator for 5 h. […] The addition of the drug induces D2 receptor activation, which activates signaling pathways and transcription factors, resulting in the expression of a reporter gene (β-lactamase) and cleavage of the fluorescence resonance energy transfer (FRET) substrate, causing the fluorescence to change from green to blue.
For `Oc1ccc2c(c1O)-c1cccc3c1[C@@H](C2)NCC3` [D4, (9R)-10-azatetracyclo[7.7.1.0²,⁷.0¹³,¹⁷]heptadeca-1(17),2,4,6,13,15-hexaene-3,4-diol], the EC50 stood at 582 nM. Same read-out and setting: in the case of `CN1CCc2cccc3c2[C@H]1Cc1ccc(OCCCN)c(O)c1-3` [D27, (9R)-4-(3-aminopropoxy)-10-methyl-10-azatetracyclo[7.7.1.0²,⁷.0¹³,¹⁷]heptadeca-1(17),2,4,6,13,15-hexaen-3-ol] it was 254 nM. The same measure, in the same setting: then `CN1CCc2cccc3c2[C@H]1Cc1ccc(OCCCO)c(O)c1-3` [D38, (9R)-4-(3-hydroxypropoxy)-10-methyl-10-azatetracyclo[7.7.1.0²,⁷.0¹³,¹⁷]heptadeca-1(17),2,4,6,13,15-hexaen-3-ol], with 3650 nM; and `CN1CCc2cccc3c2[C@H]1Cc1ccc(-c2ccccc2)c(O)c1-3` [D45, (9R)-10-methyl-4-phenyl-10-azatetracyclo[7.7.1.0²,⁷.0¹³,¹⁷]heptadeca-1(17),2,4,6,13,15-hexaen-3-ol], with 2630 nM.

A further test deals with LS patient-derived skin fibroblasts. Description: Anti-RSL3-induced cell death activity assay. Type of test: cell-based. The conditions noted are these: Homo sapiens, Skin fibroblast; co-added with RSL3 at a concentration giving 10%-20% cell viability; viable cells 24 h after addition; read-out: Anti-RSL3-induced cell death effect EC50. Here is the method:
RSL3 is a glutathione peroxidase 4 (GPx4) inhibitor that specifically induces ferroptosis. Ferroptosis is an iron-dependent non-apoptotic type of cell death caused by lipid peroxidation.
After 24 h of incubation, the reagents were added to the RSL3 (−) derivative (−) and RSL3 ( +) derivative ( +) groups. […] The final concentration of RSL3 was 50–200 nM that would cause approximately 80–90% cell death after 24 h of incubation. The percentage of viable cells was measured 24 h after addition of each reagent.
Turning to `CN1CCc2cccc3c2[C@H]1Cc1ccc(-c2ccccc2)c(O)c1-3` [D45, (9R)-10-methyl-4-phenyl-10-azatetracyclo[7.7.1.0²,⁷.0¹³,¹⁷]heptadeca-1(17),2,4,6,13,15-hexaen-3-ol], the EC50 is 745 nM.
